Each structure is given as a SMILES string. Values after ≈ are worked out from the molar mass of the structure shown. Values joined by “and” are separate entries in the source; they are usually repeats but may differ in a detail not shown here. Identical values can stand only once. Like-named read-outs stand apart in the source and are kept apart here. Residues, ends and D or L forms follow the SMILES beside them.

Experimental findings from PMC10065276, “Enhanced therapeutic window for antimicrobial Pept-ins by investigating their structure-activity relationship” (PLOS ONE, 2023) are described below.

For data set [1], the system named is HEK 293T cells. The experiment in a line: CellTiter Blue assay. Format: cell-based, human. Particulars: about 16 hours treatment, viability normalised to vehicle. How it is done:
HEK 293T cells (ATCC CRL-3216) were grown in DMEM medium, supplemented with 10% FBS, 1 mM sodium pyruvate, non-essential amino acids. 100 μL of 10 000 cells were grown in flat-bottom 96-well plates (Fischer Scientific) overnight until cells are attached to the plate. Peptides were dissolved with Mini-plasco Nacl 0.9% (B. Braun) to 2 mg/mL and diluted to indicated concentrations using cell culture medium. Cells were treated by adding 100 μL peptides to each well for about 16 hours. Cells lysed with 1% Triton X-100 was included as a positive control. The toxicity of the peptide treatments was evaluated using the CellTiter-Blue Cell Viability Assay according to the instructions of the manufacturer (Promega, USA). The metabolic activity of viable cells is measured by recording fluorescence intensity at 590 nm after excitation at 560 nm. Cell viability is determined by normalising the fluorescence intensity of peptide- or triton-treated cells to the vehicle-treated sample.
A general note: Resazurin is reduced to fluorescent resorufin, in cell work by metabolically active cells.

In data set [2] the test system is E. coli ATCC clinical isolates. Briefly: microbe, parasite or virus in culture. Format: cell-based. The following applies: S12 Table, each table row is one E. coli clinical isolate (34 isolates), highest concentration tested 32 μg/mL. The source says:
To address the emerging antibiotic resistance issue, it is not only required to develop active antibiotics against wildtype bacteria, but also against the clinically isolated multidrug-resistant strains. Therefore, we determined whether P2 variants with a 4-fold lower MICs (P2_A5F, V7Y (P2), P2_H12_GV, P2_H12_PEG) (S12 Table) will also show improved antimicrobial activity against these multidrug-resistant strains. Since a high net positive charge could carry inherent developability challenges, we further explored the therapeutic potential of P2 variants with reduced net charge (P2_4R_GV and P2_4R_L) (S12 Table) by determining their antimicrobial activity against these clinically isolated multidrug-resistant strains. The mode of action of these derivatives remains to be inducing protein aggregation in bacteria as shown by the formation of IBs stained by pFTAA after Pept-in treatment (P2, P2-4R-GV, P2_A5F, V7Y (P2), P2_H12_GV, P2_H12_PEG) (S6A Fig) and the presence of a large number of proteins with different molecular weights in purified IBs as shown by the Coomassie staining (S6B Fig), in contrast to the absence of pFTAA staining (S6A Fig) and the presence of only two faint protein bands (S6B Fig) for buffer and control peptide treated bacteria. For clinically isolated multidrug-resistant strains, in addition to the 34 clinical isolates of E. coli ATCC, we added 12 Acinetobacter baumannii (A. baumannii) isolates and 12 Klebsiella pneumoniae (K. pneumoniae) isolates to broaden the selection of the bacterial spectrum.
The peptide MIC was determined via the broth microdilution assay according to the EUCAST guideline, using 96-well polystyrene flat-bottom microtiter plates (BD Biosciences). Briefly, a single colony was inoculated in 5 mL Mueller-Hinton (MH) medium and incubated, while shaking at 37°C, to the end-exponential growth phase. The bacterial culture was subsequently diluted to 0.005 McFarland (McF) (~1.5x10^6 CFU/mL) with fresh MH medium. […] The MIC was determined as the lowest peptide concentration without visible bacterial growth.

For data set [3], the system named is E. coli BL21. The following applies: BL21, 17 h. Put shortly: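 EUCAST broth microdilution in Mueller-Hinton medium; end-exponential culture diluted to 0.005 McF (~1.5x10^6 CFU/mL) before 1:1 mixing with two-fold peptide dilutions (0.75 to 100 μg/mL), triplicates.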

Consider `CC(C)C[C@H](NC(=O)CNC(=O)[C@H](CCCNC(=N)N)NC(=O)[C@H](CC(C)C)NC(=O)[C@H](C)NC(=O)[C@H](CCCNC(=N)N)NC(=O)[C@@H](NC(=O)[C@H](CC(C)C)NC(=O)[C@H](C)NC(=O)[C@H](CC(C)C)NC(=O)CNC(=O)[C@H](CC(C)C)NC(=O)CNC(=O)[C@@H](N)CCCNC(=N)N)C(C)C)C(=O)NCC(=O)N[C@@H](CC(C)C)C(=O)N[C@@H](C)C(=O)N[C@@H](CC(C)C)C(=O)N[C@H](C(=O)N[C@@H](C)C(=O)N[C@@H](CCCNC(=N)N)C(=O)O)C(C)C` [Peptide P2_4R_L] (H-RGLGLALVRALRGLGLALVAR-OH), for which, in data set [1], the “toxicity on HEK 293T cells” value was “induced toxicity effects”.

In the case of `CC(C)C[C@H](NC(=O)CNC(=O)[C@H](CCCNC(=N)N)NC(=O)[C@@H](NC(=O)CNC(=O)[C@H](CCCNC(=N)N)NC(=O)[C@H](CCCNC(=N)N)NC(=O)[C@@H](NC(=O)[C@H](CC(C)C)NC(=O)[C@H](C)NC(=O)[C@H](CC(C)C)NC(=O)CNC(=O)[C@H](CC(C)C)NC(=O)CNC(=O)[C@@H](N)CCCNC(=N)N)C(C)C)C(C)C)C(=O)NCC(=O)N[C@@H](CC(C)C)C(=O)N[C@@H](C)C(=O)N[C@@H](CC(C)C)C(=O)N[C@H](C(=O)N[C@@H](CCCNC(=N)N)C(=O)N[C@@H](CCCNC(=N)N)C(=O)O)C(C)C` [Peptide P2_GV] (H-RGLGLALVRRGVRGLGLALVRR-OH), the “toxicity on HEK 293T cells” value in data set [1] was “induced toxicity effects”.

Take `NC[C@H]1O[C@H](O[C@H]2[C@H](O)[C@@H](O[C@H]3O[C@H](CO)[C@@H](O)[C@H](N)[C@H]3O)[C@H](N)C[C@@H]2N)[C@H](N)C[C@@H]1O` [Tobramycin]: the MIC was 1 µg/mL (≈ 2.14 µM) in data set [2] (Escherichia coli, read-out: MIC); 0.5 µg/mL and >1 µg/mL in data set [2].

Take `CC(C)C[C@H](NC(=O)CNC(=O)[C@H](CCCNC(=N)N)NC(=O)[C@@H]1CCCN1C(=O)[C@H](CCCNC(=N)N)NC(=O)[C@H](CCCNC(=N)N)NC(=O)[C@@H](NC(=O)[C@H](CC(C)C)NC(=O)[C@H](C)NC(=O)[C@H](CC(C)C)NC(=O)CNC(=O)[C@H](CC(C)C)NC(=O)CNC(=O)[C@@H](NC(=O)[C@H](Cc1ccccc1)NC(=O)[C@@H](NC(=O)[C@@H](N)CCCNC(=N)N)C(C)C)C(C)C)C(C)C)C(=O)NCC(=O)N[C@@H](CC(C)C)C(=O)N[C@@H](C)C(=O)N[C@@H](CC(C)C)C(=O)N[C@H](C(=O)N[C@@H](CCCNC(=N)N)C(=O)N[C@@H](CCCNC(=N)N)C(=O)O)C(C)C` [Peptide P2_VFV] (H-RVFVGLGLALVRRPRGLGLALVRR-OH): in data set [1], the “toxicity on HEK 293T cells” value is “higher toxicity at 400 μg/mL and 200 μg/mL than P2”.

As to `CC[C@H](C)[C@H](NC(=O)CNC(=O)[C@H](CC(C)C)NC(=O)[C@H](C)NC(=O)[C@@H]1CCCN1C(=O)[C@H](CCCNC(=N)N)NC(=O)[C@H](C)NC(=O)[C@H](CC(C)C)NC(=O)[C@H](C)NC(=O)[C@@H](NC(=O)[C@H](C)NC(=O)[C@@H](NC(=O)CNC(=O)[C@H](CC(C)C)NC(=O)[C@@H](N)CCCNC(=N)N)[C@@H](C)CC)C(C)C)C(=O)N[C@@H](C)C(=O)N[C@H](C(=O)N[C@@H](C)C(=O)N[C@@H](CC(C)C)C(=O)N[C@@H](C)C(=O)N[C@@H](CCCNC(=N)N)C(=O)O)C(C)C` [Peptide P33_3R_3] (H-RLGIAVALARPALGIAVALAR-OH), in data set [3], the “BL21 MIC” value is over 100 µg/mL.

With `CC(C)C[C@H](NC(=O)CNC(=O)[C@H](CCCNC(=N)N)NC(=O)[C@@H]1CCCN1C(=O)[C@H](CCCNC(=N)N)NC(=O)[C@H](CCCNC(=N)N)NC(=O)[C@@H](NC(=O)[C@H](CC(C)C)NC(=O)[C@H](C)NC(=O)[C@H](CC(C)C)NC(=O)CNC(=O)[C@H](CC(C)C)NC(=O)CNC(=O)[C@@H](N)CCCNC(=N)N)C(C)C)C(=O)NCC(=O)N[C@@H](CC(C)C)C(=O)N[C@@H](C)C(=O)N[C@@H](CC(C)C)C(=O)N[C@@H](C)C(=O)N[C@@H](CCCNC(=N)N)C(=O)N[C@@H](CCCNC(=N)N)C(=O)O` [Peptide P2_V19A] (H-RGLGLALVRRPRGLGLALARR-OH), the “BL21 MIC” value in data set [3] turned out to be 25.00 µg/mL.

`CC(C)C[C@H](NC(=O)CNC(=O)[C@H](CCCNC(=N)N)NC(=O)[C@@H]1CCCN1C(=O)[C@H](CCCNC(=N)N)NC(=O)[C@H](C)NC(=O)[C@@H](NC(=O)[C@H](CC(C)C)NC(=O)[C@H](C)NC(=O)[C@H](CC(C)C)NC(=O)CNC(=O)[C@H](CC(C)C)NC(=O)CNC(=O)[C@@H](N)CCCNC(=N)N)C(C)C)C(=O)NCC(=O)N[C@@H](CC(C)C)C(=O)N[C@@H](C)C(=O)N[C@@H](CC(C)C)C(=O)N[C@H](C(=O)N[C@@H](CCCNC(=N)N)C(=O)N[C@@H](C)C(=O)O)C(C)C` [R9A, R21A] (H-RGLGLALVARPRGLGLALVRA-OH): the “BL21 MIC” value in data set [3] was over 100.00 µg/mL.

Consider `CC[C@H](C)[C@H](NC(=O)CNC(=O)[C@H](CC(C)C)NC(=O)[C@H](CCCNC(=N)N)NC(=O)[C@@H]1CCCN1C(=O)[C@H](CCCNC(=N)N)NC(=O)[C@H](CCCNC(=N)N)NC(=O)[C@H](CC(C)C)NC(=O)[C@H](C)NC(=O)[C@@H](NC(=O)[C@H](C)NC(=O)[C@@H](NC(=O)CNC(=O)[C@H](CC(C)C)NC(=O)[C@@H](N)CCCNC(=N)N)[C@@H](C)CC)C(C)C)C(=O)N[C@@H](C)C(=O)N[C@H](C(=O)N[C@@H](C)C(=O)N[C@@H](CC(C)C)C(=O)N[C@@H](C)C(=O)N[C@@H](C)C(=O)O)C(C)C` [Peptide P33_4R_6] (H-RLGIAVALRRPRLGIAVALAA-OH), for which, in data set [3], the “BL21 MIC” value came out at 12.50 µg/mL.

As for `CC(C)C[C@H](NC(=O)CNC(=O)[C@H](CCCNC(=N)N)NC(=O)[C@@H]1CCCN1C(=O)[C@H](CCCNC(=N)N)NC(=O)[C@H](CCCNC(=N)N)NC(=O)[C@@H](NC(=O)[C@H](CC(C)C)NC(=O)[C@H](C)NC(=O)[C@H](CC(C)C)NC(=O)CNC(=O)[C@H](CC(C)C)NC(=O)CNC(=O)[C@@H](N)CCCNC(=N)N)C(C)C)C(=O)NCC(=O)N[C@@H](CC(C)C)C(=O)N[C@@H](C)C(=O)N[C@@H](CC(C)C)C(=O)N[C@H](C(=O)N[C@@H](C)C(=O)N[C@@H](CCCNC(=N)N)C(=O)O)C(C)C` [Peptide P2_R20A] (H-RGLGLALVRRPRGLGLALVAR-OH), in data set [3], the “BL21 MIC” value stood at 6.25 µg/mL.
